According to patent publication US6245758A, “Methods of use for peroxynitrite decomposition catalysts, pharmaceutical compositions therefor” (priority 1996, dated 2001):

What was measured:
[1] = tested on: CuZnSOD; experiment: Inactivation of CuZnSOD by peroxynitrite (stopped flow superoxide dismutase activity); conditions: 250 uM EDTA alone
Description: Stock solutions of bovine liver CuZnSOD (DDI Pharmaceuticals Inc., Mountain View CA) were prepared by dissolving -1.0 mg of enzyme in 10 mL of 50 mM potassium phosphate buffer at a pH=7.4. […] All kobs were the average of triplicate runs using a stopped flow spectrophotometer manufactured by Kinetic Instruments Inc. (Ann Arbor, Mich.) and was interfaced to a MAC IICX personal computer.
Inactivation of CuZn SOD by peroxynitrite.
Inactivation of peroxynitrite was performed by aloquating 1.0 mL of stock CuZn SOD solution into 50 mM potassium phosphate buffer pH=7.4 such that a final assay volume of 10 mL is achieved after addition of peroxynitrite and EDTA solutions. To these assay solution was added various amounts of peroxynitrite (25 mM stock solution) such that the final concentration of peroxynitrite in the assay varied from 0, 25, 50, 75 and 100 uM. After the addition of peroxynitrite, 100 uL of a 2.5 mM stock EDTA solution was added to each assay solution such that the final concentration of EDTA was 250 uM. Each solution was then assayed by stopped flow analysis for superoxide dismutase activity.

[2] = Stopped-flow kinetic analysis of catalytic decomposition of peroxynitrite by metal complexes; conditions: pH = 7.4, 22° C.
Description: To screen metal complexes for peroxynitrite decomposition catalytic activity of the present invention, peroxynitrite is prepared and isolated as its sodium salt by the reaction of acidic hydrogen peroxide with sodium nitrite followed by rapid quenching with NaOH as set out by Halfpenny and Robinson, in J. Chem. So., 1952, 928-938. Peroxynitrite has an absorbance maximum at 302 nm with an extinction coefficient of 1670 M^-1 cm^-1. Therefore, it is possible to directly observe the decomposition of peroxynitrite by stop-flow spectrophotometric analysis by monitoring the decomposition of the absorbance at 302 nm. That is, such observation of the decomposition of peroxynitrite at a rate accelerated over the natural decomposition rate with the addition of the metal complex identifies a compound of the present invention.
Kinetic measurements were made on an OLIS Rapid Scanning Stopped-Flow Spectrometer (On-Line Instrument Systems Inc., Bogart, Ga.)) using the OLISRSM-1000 Operating system for data acquisition and manipulation.
Thus, in a typical experiment the natural background decomposition rate of sodium peroxynitrite was determined as follows. A 24 mM stock solution of sodium peroxynitrite in 50 mM NaOH is load into the small volume syringe and 100 mM potassium phosphate pH=7.4 is charged into the large volume syringe of the stopped-flow spectrophotometer. All stopped -flow measurements were made at 22 ° C. Injection of the solutions into the sample compartment results in ~25 fold dilution of the stock sodium peroxynitrite. […] To test for catalytic peroxynitrite decomposition activity, the metal complex was dissolved in 100 mM potassium phosphate buffer pH=7.4 and loaded into the large syringe and the decomposition of peroxynitrite was monitored as described above. The catalytic rate constant (kcat M-1 sec^-1) for the complexes tested was determined by varying the complex concentration and plotting kobs vs [complex] Table 1. The kobs were obtained from averages of three stopped flow analysis at each catalyst concentration.

[3] = tested on: carrageenan-induced paw edema; experiment: Carrageenan-induced paw edema; assay type: in vivo, rat
From the text: Carrageenan-induced paw edema. The effects of peroxynitrite catalysts in vivo were initially tested on the carrageenan-induced paw edema. The choice of using this in vivo model of inflammation was based on the knowledge that 1) the inflammatory response is blocked by NOS inhibitors and 2) by superoxide dismutase (SOD). This indicates the participation of both NO and of O2-. Male Sprague Dawley rats were purchased from Harlan Sprague-Dawley (Indianapolis, Ind.). Male Sprague Dawley rats (175-200 g) received a subplantar injection in the right hind paw of carrageenan (0.1 ml of a 1% suspension in 0.85% saline). Paw volume was measured by a plethysmometer immediately before the injection of carrageenan and then at hourly intervals from 1 to 6 h. Edema was expressed as the increase in paw volume (in ml) measured after carrageenan injection compared to the pre-injection value for individual animals.

[4] = tested on: RAW 264.7 cells; experiment: Cell protection assay, Alamar Blue viability after peroxynitrite challenge; assay type: cell-based, murine; conditions: PN 500 micromolar; RAW cells, FIG. 9 (H2 TMPyP and ZnTMPyP: data not shown)
Description: FIG. 8: Comparison of Ni and Fe Catalyst Protection of RAW Cells from PN(peroxynitrite)-mediated Injury. RAW 264.7 cells were plated at approximately 2×10^5 per well of a 96-well plate. […] Each condition represents the mean of 4 wells ±sem.
FIG. 9: Protection from PN-mediated RAW Cell Injury by Fe Catalysts. Cells were treated with 500 micromolar PN in the presence or the absence of the following catalysts: FeTMPyP, FeTMPS, FeTPPS. Cell viability was monitored as described in the text and figure legends 1, 2 and 3. Values represent the mean of 4 determinations ±sem.
Protocol for Cell Protection Assays using Peroxynitrite Decomposition Catalysts: A cell viability assay was established to rapidly assess the efficacy of peroxynitrite(PN) catalysts in protecting cells from PN25 mediated injury and death. The peroxynitrite challenge consisted of a pulse of synthetic PN added exogenously to cells. In order to better assess the efficacy of PN catalysts in protecting cells from PN-mediated damage, a quantity of peroxynitrite(in 50 mM NaOH) determined to cause maximal injury(100%) was added as an exogenous pulse to each well of cells in the presence or absence of catalyst. The NaOH vehicle was not toxic by itself.
Cells(RAW 264.7 cells or P815 mastocytoma cells; American Type Culture Collection, Rockville, Md.) were plated to confluence on 96-well tissue culture plates. Each well is washed twice with Dulbecco's phosphate buffered saline(DPBS; GIBCO BRL, Grand Island, N.Y.) to remove protein and other serum components which might react with the exogenous peroxynitrite. To each well is then added 200 μl of DPBS. PN is next placed into separate wells at increasing concentrations and cell viability monitored. The dose at which maximal cell death is attained is then utilized for the catalyst protection assessment.
Phosphate-buffered saline (200 uL) containing increasing concentrations of catalyst is next placed into individual wells of cells. The maximal dose of PN is subsequently administered to all wells of cells. After 15 minutes, the medium is removed from each well and the cells are either allowed to recover overnight in Earles minimum essential medium without phenol red and supplemented with 10% fetal bovine serum or alternatively the plate of cells is assayed that day for mitochondrial integrity using the Alamar Blue viability assay(Alamar Biosciences, Inc.; Sacramento, Calif.). In either case, cells are incubated at 37° C. in 5% CO2.
Cell injury is measured as follows. Briefly, 10% Alamar Blue(v/v) in Earles MEM with 10% FBS is added to each well of cells for 1-2h. Cell metabolism of the dye generates a fluorescent product which is directly related to the number of viable cells. Moreover, the production of the fluorescent metabolite is linear for over 2 h. The amount of fluorescent product in 100 μl of conditioned medium from each well of cells is then measured with an IDEXX fluorescent plate reader (gain setting of 1%) at an emission wavelength of 575 nm after exciting at 545 nm. Viability is either given as absolute fluorescent units or as a percent of the value obtained for untreated cells(100%).

[5] = tested on: rat jejunum; experiment: Intestinal vascular permeability (radiolabelled albumin leakage) after endotoxin (LPS); assay type: in vivo; conditions: 30 mg/kg, i.v, 3 h after LPS; determined 1 h later
Description: FIG. 10 . Effects of FeTMPS, FeTMPyP or ZnTMPyP (30 mg/kg, i.v bolus) administered 3 h after challenge with E. coli lipopolysaccharide (LPS, 3 mg/kg, i.v bolus) on the increase in leakage of radio-labelled albumin (plasma extravasation, μl/g tissue) observed 1 h later (e.g 4 h after LPS challenge) in the rat jejunum. Results are shown as mean±s.e.m of 4-8 rats.
Intestinal vascular permeability was determined as the leakage into the jejunal tissue of [^125 I]-labelled bovine serum albumin ([^125 ]-BSA) administered intravenously (0.5 ml; 0.5 μCi) together with either LPS (3 mg/kg, serotype O111:B4) or isotonic saline. At 4 h after LPS administration, segments of jejunal tissue were ligated and removed. The intestinal tissues were rapidly washed, blotted dry and weighed. Blood (0.5 ml) was collected into tubes containing tri-sodium citrate (0.318% final concentration) and plasma prepared by centrifugation (10,000 g×10 min). The {^125 I]-BSA content in segments of whole tissue and in aliquots of plasma (100 μl) was determined in a gamma counter. The total content of plasma in the intestinal tissues was expressed as μl/g tissue. Changes in intravascular volume in the intestinal tissue was determined in an additional group of rats by administering ([^125 I]-BSA) intravenously 2 min before removal of the jejunum. The tissue and plasma content of radiolabel was determined and intravascular volume expressed as μl/g tissue. This value was substracted from that obtained in the plasma leakage studies to obtain a measure of the intestinal plasma albumin leakage. After LPS administration (4 h), there was a significant (P<0.01) increase in the plasma leakage (from 77±10 to 224±18 μl/g tissue, n=8).

## O=C(O)CN(CCN(CC(=O)O)CC(=O)O)CC(=O)O [EDTA]
[1]
  CuZnSOD activity in control reaction: no decrease in CuZnSOD activity

## CC(=O)[O-].O=S(=O)(O)c1ccc(-c2c3nc(c(-c4ccc(S(=O)(=O)O)cc4)c4ccc([n-]4)c(-c4ccc(S(=O)(=O)O)cc4)c4nc(c(-c5ccc(S(=O)(=O)O)cc5)c5ccc2[n-]5)C=C4)C=C3)cc1.[Fe+3] [Fe(III)TPPS, Acetato-5,10,15,20-tetrakis(4-sulfonatophenyl)porphyrin iron(III)]
[2]
  kcat, catalytic rate constant for the decomposition of sodium peroxynitrite: 2.06e+06 M⁻¹ s⁻¹
[3]; 3 mg/kg i.v., 1 h post carrageenan
  % Inhibition of Paw Edema: 0%
[3]; 3 mg/kg i.v., 2 h post carrageenan
  % Inhibition of Paw Edema: 29%
[3]; 3 mg/kg i.v., 3 h post carrageenan
  % Inhibition of Paw Edema: 20%
[3]; 3 mg/kg i.v., 4 h post carrageenan
  % Inhibition of Paw Edema: 20%
[3]; 3 mg/kg i.v., 5 h post carrageenan
  % Inhibition of Paw Edema: 19%
[3]; 3 mg/kg i.v., 6 h post carrageenan
  % Inhibition of Paw Edema: 5%
[3]; 10 mg/kg i.v., 1 h post carrageenan
  % Inhibition of Paw Edema: 0%
[3]; 10 mg/kg i.v., 2 h post carrageenan
  % Inhibition of Paw Edema: 17%
[3]; 10 mg/kg i.v., 3 h post carrageenan
  % Inhibition of Paw Edema: 20%
[3]; 10 mg/kg i.v., 4 h post carrageenan
  % Inhibition of Paw Edema: 23%
[3]; 10 mg/kg i.v., 5 h post carrageenan
  % Inhibition of Paw Edema: 19%
[3]; 10 mg/kg i.v., 6 h post carrageenan
  % Inhibition of Paw Edema: 20%
[3]; 30 mg/kg i.v., 1 h post carrageenan
  % Inhibition of Paw Edema: 0%
[3]; 30 mg/kg i.v., 2 h post carrageenan
  % Inhibition of Paw Edema: 27%
[3]; 30 mg/kg i.v., 3 h post carrageenan
  % Inhibition of Paw Edema: 25%
[3]; 30 mg/kg i.v., 4 h post carrageenan
  % Inhibition of Paw Edema: 30%
[3]; 30 mg/kg i.v., 5 h post carrageenan
  % Inhibition of Paw Edema: 34%
[3]; 30 mg/kg i.v., 6 h post carrageenan
  % Inhibition of Paw Edema: 33%
[4]
  protection of cells from PN-mediated injury: significant protection of cells

## C[n+]1ccc(-c2c3nc(c(-c4cc[n+](C)cc4)c4ccc([nH]4)c(-c4cc[n+](C)cc4)c4nc(c(-c5cc[n+](C)cc5)c5ccc2[nH]5)C=C4)C=C3)cc1.[Zn+2] [ZnTMPyP, reference compound]
[2]
  kcat, catalytic rate constant for the decomposition of sodium peroxynitrite: Inactive
[3]; 30 mg/kg i.v.
  inhibition of edema formation: failed to inhibit edema formation
[5]
  radiolabelled albumin leakage: did not inhibit radiolabelled albumin leakage
[4]
  protection of cells from PN-mediated injury: relatively ineffective
